# Experiments:
# Assay in all cases: radiometric filter-binding kinase assay, Kinase HotSpot
# Conditions in all cases: compound 0.5 µM; ATP 10 µM
# CHEK1 (human) = CHEK1 (human) (UniProt O14757)
# NLK (human) = NLK (human) (UniProt Q9UBE8)
# CAMK2D (human) = CAMK2D (human) (UniProt Q13557)
# PAK7 (human) = PAK7 (human) (UniProt Q9P286)
# IRAK4 (human) = IRAK4 (human) (UniProt Q9NWZ3)
# PLK3 (human) = PLK3 (human) (UniProt Q9H4B4)
# AURKB (human) = AURKB (human) (UniProt Q96GD4)
# TAOK1 (human) = TAOK1 (human) (UniProt Q7L7X3)
# MST4 (human) = MST4 (human) (UniProt Q9P289)
# PRKD3 (human) = PRKD3 (human) (UniProt O94806)
# MST1R (human) = MST1R (human) (UniProt Q04912)
# CLK4 (human) = CLK4 (human) (UniProt Q9HAZ1)
# NEK2 (human) = NEK2 (human) (UniProt P51955)
# HCK (human) = HCK (human) (UniProt P08631)
# FGFR2 (human) = FGFR2 (human) (UniProt P21802)
# ERBB4 (human) = ERBB4 (human) (UniProt Q15303)
# PRKCA (human) = PRKCA (human) (UniProt P17252)
# MARK1 (human) = MARK1 (human) (UniProt Q9P0L2)
# SGK3 (human) = SGK3 (human) (UniProt Q96BR1)
# DAPK3 (human) = DAPK3 (human) (UniProt O43293)
# CDK4 CCND3 (human) = CDK4 CCND3 (human) (UniProt P30281+P11802)
# STK39 (human) = STK39 (human) (UniProt Q9UEW8)
# NEK1 (human) = NEK1 (human) (UniProt Q96PY6)
# MYLK (human) = MYLK (human) (UniProt Q15746)
# PRKCG (human) = PRKCG (human) (UniProt P05129)
# PRKX (human) = PRKX (human) (UniProt P51817)
# MKNK2 (human) = MKNK2 (human) (UniProt Q9HBH9)
# MLTK (human) = MLTK (human) (UniProt Q9NYL2)
# CAMK1G (human) = CAMK1G (human) (UniProt Q96NX5)
# EPHB3 (human) = EPHB3 (human) (UniProt P54753)
# CDK9 CCNT1 (human) = CDK9 CCNT1 (human) (UniProt P50750+O60563)
# STK4 (human) = STK4 (human) (UniProt Q13043)
# WEE1 (human) = WEE1 (human) (UniProt P30291)
# PIM2 (human) = PIM2 (human) (UniProt Q9P1W9)
# EPHB4 (human) = EPHB4 (human) (UniProt P54760)
# YES1 (human) = YES1 (human) (UniProt P07947)
# SIK2 (human) = SIK2 (human) (UniProt Q9H0K1)
# MAPK12 (human) = MAPK12 (human) (UniProt P53778)
# ROS1 (human) = ROS1 (human) (UniProt P08922)
# TGFBR1 (human) = TGFBR1 (human) (UniProt P36897)
# ACVR1B (human) = ACVR1B (human) (UniProt P36896)
# EPHA3 (human) = EPHA3 (human) (UniProt P29320)
# Chain of PAK7 (human) (Q9P286 whole entry, looked up): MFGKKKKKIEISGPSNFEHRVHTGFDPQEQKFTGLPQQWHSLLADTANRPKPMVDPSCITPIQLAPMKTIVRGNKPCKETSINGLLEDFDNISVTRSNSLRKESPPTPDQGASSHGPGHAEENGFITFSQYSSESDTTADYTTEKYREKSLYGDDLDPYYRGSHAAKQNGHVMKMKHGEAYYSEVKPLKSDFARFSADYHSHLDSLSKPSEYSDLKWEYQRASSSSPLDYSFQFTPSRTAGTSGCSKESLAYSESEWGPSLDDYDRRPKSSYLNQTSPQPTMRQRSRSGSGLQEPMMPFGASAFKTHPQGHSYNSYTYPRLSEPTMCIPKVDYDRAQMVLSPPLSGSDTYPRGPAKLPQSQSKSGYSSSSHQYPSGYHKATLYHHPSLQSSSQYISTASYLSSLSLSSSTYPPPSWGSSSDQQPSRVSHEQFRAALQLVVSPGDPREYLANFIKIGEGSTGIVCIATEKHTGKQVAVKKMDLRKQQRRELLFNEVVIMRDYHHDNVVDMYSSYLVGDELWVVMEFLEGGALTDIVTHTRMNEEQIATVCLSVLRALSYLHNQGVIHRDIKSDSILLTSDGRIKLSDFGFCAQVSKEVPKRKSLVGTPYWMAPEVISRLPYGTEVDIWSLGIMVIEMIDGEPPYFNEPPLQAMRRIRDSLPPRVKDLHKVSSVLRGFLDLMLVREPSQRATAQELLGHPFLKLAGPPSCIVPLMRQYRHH
# Chain of IRAK4 (human) (Q9NWZ3 whole entry, looked up): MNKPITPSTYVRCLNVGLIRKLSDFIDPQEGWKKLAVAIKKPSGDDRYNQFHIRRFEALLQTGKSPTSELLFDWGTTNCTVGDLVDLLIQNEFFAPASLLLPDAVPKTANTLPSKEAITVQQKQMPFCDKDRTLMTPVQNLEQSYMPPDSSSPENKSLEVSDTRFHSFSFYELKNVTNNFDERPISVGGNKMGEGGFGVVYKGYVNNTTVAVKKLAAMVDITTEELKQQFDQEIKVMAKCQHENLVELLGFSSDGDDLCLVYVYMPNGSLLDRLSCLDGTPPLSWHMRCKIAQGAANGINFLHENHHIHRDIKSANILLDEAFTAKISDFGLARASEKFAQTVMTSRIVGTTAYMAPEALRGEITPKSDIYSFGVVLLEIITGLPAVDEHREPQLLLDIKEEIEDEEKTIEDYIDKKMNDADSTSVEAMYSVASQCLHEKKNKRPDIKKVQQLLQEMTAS
# Chain of CAMK1G (human) (Q96NX5 whole entry, looked up): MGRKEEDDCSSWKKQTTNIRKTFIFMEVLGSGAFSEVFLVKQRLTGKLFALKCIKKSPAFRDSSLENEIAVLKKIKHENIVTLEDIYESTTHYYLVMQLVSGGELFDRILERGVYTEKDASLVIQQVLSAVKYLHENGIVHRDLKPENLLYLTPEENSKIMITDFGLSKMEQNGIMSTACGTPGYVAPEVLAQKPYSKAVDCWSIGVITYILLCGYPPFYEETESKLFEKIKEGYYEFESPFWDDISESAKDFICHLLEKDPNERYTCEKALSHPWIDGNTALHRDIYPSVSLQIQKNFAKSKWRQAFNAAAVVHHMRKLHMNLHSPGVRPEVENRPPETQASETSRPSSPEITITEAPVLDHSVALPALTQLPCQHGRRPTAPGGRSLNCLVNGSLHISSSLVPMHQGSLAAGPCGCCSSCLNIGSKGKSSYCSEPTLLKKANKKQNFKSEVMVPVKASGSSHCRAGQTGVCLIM
# Chain of MYLK (human) (Q15746 whole entry, looked up): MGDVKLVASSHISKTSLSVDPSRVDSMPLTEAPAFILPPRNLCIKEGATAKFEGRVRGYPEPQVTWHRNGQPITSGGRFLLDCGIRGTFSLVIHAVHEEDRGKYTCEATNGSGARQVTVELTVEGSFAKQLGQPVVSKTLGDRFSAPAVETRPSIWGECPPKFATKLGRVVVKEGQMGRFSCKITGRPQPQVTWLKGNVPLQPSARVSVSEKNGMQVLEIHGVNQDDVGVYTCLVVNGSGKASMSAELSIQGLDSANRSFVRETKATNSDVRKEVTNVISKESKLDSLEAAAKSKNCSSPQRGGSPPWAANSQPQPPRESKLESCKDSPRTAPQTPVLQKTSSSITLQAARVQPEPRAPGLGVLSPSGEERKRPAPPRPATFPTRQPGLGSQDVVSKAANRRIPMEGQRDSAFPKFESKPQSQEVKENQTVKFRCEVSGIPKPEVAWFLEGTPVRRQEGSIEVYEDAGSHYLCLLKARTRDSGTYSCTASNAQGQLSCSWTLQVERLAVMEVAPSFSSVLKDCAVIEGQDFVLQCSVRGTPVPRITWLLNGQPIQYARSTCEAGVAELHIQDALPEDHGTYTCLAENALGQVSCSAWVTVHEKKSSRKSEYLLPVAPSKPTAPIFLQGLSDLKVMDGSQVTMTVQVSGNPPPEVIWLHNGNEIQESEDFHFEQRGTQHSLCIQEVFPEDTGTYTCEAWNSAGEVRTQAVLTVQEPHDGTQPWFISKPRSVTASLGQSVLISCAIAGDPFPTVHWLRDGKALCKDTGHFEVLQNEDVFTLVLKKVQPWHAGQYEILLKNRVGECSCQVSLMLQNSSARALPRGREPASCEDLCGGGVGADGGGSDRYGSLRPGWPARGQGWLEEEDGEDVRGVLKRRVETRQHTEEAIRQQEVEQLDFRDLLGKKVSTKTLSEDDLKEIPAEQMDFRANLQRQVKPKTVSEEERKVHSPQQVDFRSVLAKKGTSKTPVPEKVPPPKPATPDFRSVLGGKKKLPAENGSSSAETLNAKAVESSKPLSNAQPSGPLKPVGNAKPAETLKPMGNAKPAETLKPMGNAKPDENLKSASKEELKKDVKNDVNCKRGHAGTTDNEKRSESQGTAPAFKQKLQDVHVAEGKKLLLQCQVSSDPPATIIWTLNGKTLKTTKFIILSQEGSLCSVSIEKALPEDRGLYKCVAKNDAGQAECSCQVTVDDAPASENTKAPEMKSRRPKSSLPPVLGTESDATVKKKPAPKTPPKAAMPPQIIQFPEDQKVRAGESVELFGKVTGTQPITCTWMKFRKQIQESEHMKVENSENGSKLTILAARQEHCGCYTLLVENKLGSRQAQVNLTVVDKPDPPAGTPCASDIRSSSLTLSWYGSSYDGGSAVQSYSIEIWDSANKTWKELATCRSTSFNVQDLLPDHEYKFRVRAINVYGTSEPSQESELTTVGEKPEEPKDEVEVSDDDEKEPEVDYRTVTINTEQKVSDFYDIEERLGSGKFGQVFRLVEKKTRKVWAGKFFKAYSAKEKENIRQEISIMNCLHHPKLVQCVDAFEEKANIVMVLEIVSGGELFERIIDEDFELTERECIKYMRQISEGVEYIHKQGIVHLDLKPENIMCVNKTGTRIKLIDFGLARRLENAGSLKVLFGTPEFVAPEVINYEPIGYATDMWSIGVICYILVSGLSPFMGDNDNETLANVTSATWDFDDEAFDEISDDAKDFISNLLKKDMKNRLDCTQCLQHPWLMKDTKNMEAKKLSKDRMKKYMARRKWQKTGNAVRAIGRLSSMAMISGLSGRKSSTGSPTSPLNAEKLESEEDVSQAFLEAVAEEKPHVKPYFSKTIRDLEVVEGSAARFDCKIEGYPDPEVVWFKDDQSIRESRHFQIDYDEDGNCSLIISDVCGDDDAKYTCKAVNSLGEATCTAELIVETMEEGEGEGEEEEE
# Chain of PIM2 (human) (Q9P1W9 whole entry, looked up): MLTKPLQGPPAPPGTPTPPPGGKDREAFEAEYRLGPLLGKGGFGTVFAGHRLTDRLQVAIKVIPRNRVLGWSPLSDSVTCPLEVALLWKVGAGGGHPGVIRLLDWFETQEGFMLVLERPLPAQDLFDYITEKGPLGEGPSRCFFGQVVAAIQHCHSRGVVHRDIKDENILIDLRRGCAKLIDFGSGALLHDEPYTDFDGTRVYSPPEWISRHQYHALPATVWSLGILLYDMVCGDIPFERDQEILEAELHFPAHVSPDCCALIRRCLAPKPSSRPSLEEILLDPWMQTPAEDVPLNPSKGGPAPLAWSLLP
# Chain of CLK4 (human) (Q9HAZ1 whole entry, looked up): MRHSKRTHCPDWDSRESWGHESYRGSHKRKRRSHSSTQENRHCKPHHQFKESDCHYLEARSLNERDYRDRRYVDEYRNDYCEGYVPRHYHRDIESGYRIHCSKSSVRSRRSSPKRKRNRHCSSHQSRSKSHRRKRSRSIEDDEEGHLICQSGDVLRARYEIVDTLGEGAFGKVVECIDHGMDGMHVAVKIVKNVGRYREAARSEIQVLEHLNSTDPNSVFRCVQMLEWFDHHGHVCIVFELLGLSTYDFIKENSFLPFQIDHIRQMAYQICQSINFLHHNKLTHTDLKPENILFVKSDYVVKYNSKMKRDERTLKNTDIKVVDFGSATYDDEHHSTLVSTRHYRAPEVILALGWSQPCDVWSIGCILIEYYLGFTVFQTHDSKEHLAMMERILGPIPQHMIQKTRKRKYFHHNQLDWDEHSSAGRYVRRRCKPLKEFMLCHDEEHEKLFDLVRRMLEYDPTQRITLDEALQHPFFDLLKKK
structure (smiles),measurement,setting,value
CC(=O)O/N=C1\C(=C2\C(=O)Nc3cc(Br)ccc32)Nc2ccccc21,residual activity,CHEK1 (human),100%
same,residual activity,NLK (human),106%
same,residual activity,CAMK2D (human),53.8%
same,residual activity,PAK7 (human),89.1%
same,residual activity,IRAK4 (human),94.1%
same,residual activity,PLK3 (human),96.2%
same,residual activity,AURKB (human),81%
same,residual activity,TAOK1 (human),126%
same,residual activity,MST4 (human),78.7%
same,residual activity,PRKD3 (human),84.9%
same,residual activity,MST1R (human),92.8%
same,residual activity,CLK4 (human),94.1%
same,residual activity,NEK2 (human),73.9%
same,residual activity,HCK (human),43.1%
same,residual activity,FGFR2 (human),85.8%
same,residual activity,ERBB4 (human),101%
same,residual activity,PRKCA (human),105%
same,residual activity,MARK1 (human),76%
same,residual activity,SGK3 (human),100%
same,residual activity,DAPK3 (human),82.2%
same,residual activity,CDK4 CCND3 (human),86.2%
same,residual activity,STK39 (human),105%
same,residual activity,NEK1 (human),94.7%
same,residual activity,MYLK (human),74.2%
same,residual activity,PRKCG (human),103%
same,residual activity,PRKX (human),99.9%
same,residual activity,MKNK2 (human),66.9%
same,residual activity,MLTK (human),77%
same,residual activity,CAMK1G (human),101%
same,residual activity,EPHB3 (human),94.2%
same,residual activity,CDK9 CCNT1 (human),91.5%
same,residual activity,STK4 (human),54.2%
same,residual activity,WEE1 (human),93.7%
same,residual activity,PIM2 (human),93.2%
same,residual activity,EPHB4 (human),92.2%
same,residual activity,YES1 (human),46.4%
same,residual activity,SIK2 (human),54.6%
same,residual activity,MAPK12 (human),85.2%
same,residual activity,ROS1 (human),105%
same,residual activity,TGFBR1 (human),101%
same,residual activity,ACVR1B (human),98.2%
same,residual activity,EPHA3 (human),88.2%
CCN(CC)CCCCN1c2ccccc2Oc2ccc(Cl)cc21,residual activity,CHEK1 (human),101%
same,residual activity,NLK (human),101%
same,residual activity,CAMK2D (human),105%
same,residual activity,PAK7 (human),116%
same,residual activity,IRAK4 (human),194%
same,residual activity,PLK3 (human),102%
same,residual activity,AURKB (human),94.1%
same,residual activity,TAOK1 (human),97.9%
same,residual activity,MST4 (human),98%
same,residual activity,PRKD3 (human),97.1%
same,residual activity,MST1R (human),112%
same,residual activity,CLK4 (human),97%
same,residual activity,NEK2 (human),101%
same,residual activity,HCK (human),105%
same,residual activity,FGFR2 (human),95.7%
same,residual activity,ERBB4 (human),102%
same,residual activity,PRKCA (human),83%
same,residual activity,MARK1 (human),100%
same,residual activity,SGK3 (human),101%
same,residual activity,DAPK3 (human),106%
same,residual activity,CDK4 CCND3 (human),102%
same,residual activity,STK39 (human),83.5%
same,residual activity,NEK1 (human),101%
same,residual activity,MYLK (human),97%
same,residual activity,PRKCG (human),91.1%
same,residual activity,PRKX (human),103%
same,residual activity,MKNK2 (human),111%
same,residual activity,MLTK (human),94.4%
same,residual activity,CAMK1G (human),99.2%
same,residual activity,EPHB3 (human),112%
same,residual activity,CDK9 CCNT1 (human),101%
same,residual activity,STK4 (human),98.9%
same,residual activity,WEE1 (human),92.7%
same,residual activity,PIM2 (human),109%
same,residual activity,EPHB4 (human),97.9%
same,residual activity,YES1 (human),88.5%
same,residual activity,SIK2 (human),111%
same,residual activity,MAPK12 (human),97.4%
same,residual activity,ROS1 (human),95.3%
same,residual activity,TGFBR1 (human),97.2%
same,residual activity,ACVR1B (human),105%
same,residual activity,EPHA3 (human),101%
Cn1nc2c3c(cccc31)C(=O)c1ccccc1-2,residual activity,CHEK1 (human),93.7%
same,residual activity,NLK (human),100%
same,residual activity,CAMK2D (human),90%
same,residual activity,PAK7 (human),102%
same,residual activity,IRAK4 (human),97.3%
same,residual activity,PLK3 (human),96.2%
same,residual activity,AURKB (human),83.5%
same,residual activity,TAOK1 (human),100%
same,residual activity,MST4 (human),108%
same,residual activity,PRKD3 (human),65.5%
same,residual activity,MST1R (human),96.7%
same,residual activity,CLK4 (human),69.8%
same,residual activity,NEK2 (human),88.2%
same,residual activity,HCK (human),94.6%
same,residual activity,FGFR2 (human),105%
same,residual activity,ERBB4 (human),94.3%
same,residual activity,PRKCA (human),96.1%
same,residual activity,MARK1 (human),95.7%
same,residual activity,SGK3 (human),107%
same,residual activity,DAPK3 (human),102%
same,residual activity,CDK4 CCND3 (human),92.4%
same,residual activity,STK39 (human),101%
same,residual activity,NEK1 (human),78.3%
same,residual activity,MYLK (human),77.4%
same,residual activity,PRKCG (human),90.6%
same,residual activity,PRKX (human),101%
same,residual activity,MKNK2 (human),94.1%
same,residual activity,MLTK (human),83.1%
same,residual activity,CAMK1G (human),95.5%
same,residual activity,EPHB3 (human),85.5%
same,residual activity,CDK9 CCNT1 (human),94.7%
same,residual activity,STK4 (human),78.9%
same,residual activity,WEE1 (human),92.3%
same,residual activity,PIM2 (human),105%
same,residual activity,EPHB4 (human),99.9%
same,residual activity,YES1 (human),94.5%
same,residual activity,SIK2 (human),100%
same,residual activity,MAPK12 (human),93.8%
same,residual activity,ROS1 (human),104%
same,residual activity,TGFBR1 (human),93.7%
same,residual activity,ACVR1B (human),102%
same,residual activity,EPHA3 (human),93.5%

# Source: the kinase profiling compilation of Christmann-Franck et al. (2016)
